{"source": "patent US4711952A", "about": "“Serum thymic factor peptide analogs and process for the preparation thereof” (SPOFA, spojene podniky pro zdravotnickouvyrobu, priority 1984, dated 1987)", "note": "Non-standard residues stand in square brackets, D forms with d. Residues, ends and D or L forms follow the SMILES beside them. No end group written: not given here. pGlu = O=C1CC[C@@H](C(=O)O)N1"}
{"tested_on": "Flymphocytes", "assay": "Recovery assay of Flymphocytes (in vitro)", "assay_type": "cell-based", "details": "positive for immunostimulation and negative for immunosuppression", "excerpt": "As is evident from the general formula I in comparison with the above structure of the natural substance, the compounds of the present invention, besides optional shortening at the N-terminus, comprise a C-terminal augmentation predominantly by an additional amino-acid residue or residues bearing an amide moiety.", "units": {"Recovery Assay of Flymbocytes differential count": "%"}}
{"compound": "C[C@H](NC(=O)[C@@H]1CCC(=O)N1)C(=O)N[C@@H](CCCCN)C(=O)N[C@@H](CO)C(=O)N[C@@H](CCC(N)=O)C(=O)NCC(=O)NCC(=O)N[C@@H](CO)C(=O)N[C@@H](CC(N)=O)C(=O)NCC(N)=O", "note": "([pGlu]AKSQGGSNG-NH2)", "Recovery Assay of Flymbocytes differential count": 6.31}
{"compound": "C[C@H](NC(=O)[C@@H]1CCC(=O)N1)C(=O)N[C@@H](CCCCN)C(=O)N[C@@H](CO)C(=O)N[C@@H](CCC(N)=O)C(=O)NCC(=O)NCC(=O)N[C@@H](CO)C(=O)N[C@@H](CC(N)=O)C(=O)N[C@@H](Cc1ccccc1)C(N)=O", "note": "[p-Glu--D-Gln--E--PheNH2, Pyroglutamyl-alanyl-lysyl-seryl-glutaminyl-glycyl-glycyl-seryl-asparaginyl-phenylalanine amide] ([pGlu]AKSQGGSNF-NH2)", "Recovery Assay of Flymbocytes differential count": 7.54}
{"compound": "NC(=O)C[C@H](NC(=O)[C@H](CO)NC(=O)CNC(=O)CNC(=O)[C@@H]1CCC(=O)N1)C(=O)N[C@@H](Cc1ccccc1)C(N)=O", "note": "[p-Glu--E--PheNH2, Pyroglutamyl-glycyl-glycyl-seryl-asparaginyl-phenylalanine amide] ([pGlu]GGSNF-NH2)", "Recovery Assay of Flymbocytes differential count": 2.89}
{"compound": "AKSQGGSNG-NH2 [D-Gln--E--GlyNH2, Alanyl-lysyl-seryl-glutaminyl-glycyl-glycyl-seryl-asparaginyl-glycine amide]", "Recovery Assay of Flymbocytes differential count": 12.75}
{"compound": "NC(=O)CNC(=O)[C@H](CC(N)=O)NC(=O)[C@H](CO)NC(=O)CNC(=O)CNC(=O)[C@@H]1CCC(=O)N1", "note": "[p-Glu--E--GlyNH2, Pyroglutamyl-glycyl-glycyl-seryl-asparaginyl-glycine amide] ([pGlu]GGSNG-NH2)", "Recovery Assay of Flymbocytes differential count": 6.35}
{"compound": "AKSQGGSNF-NH2 [D-Gln--E--PheNH2, Alanyl-lysyl-seryl-glutaminyl-glycyl-glycyl-seryl-asparaginyl-phenylalanine amide]", "Recovery Assay of Flymbocytes differential count": 16.09}
